Laboratory results from patent US20260015350A1, “AZAQUINAZOLINE PAN-KRAS INHIBITORS” (Mirati Therapeutics, Inc., priority 2022, published 2026).

What was measured:
KRas^G12R = target: T1, KRas^G12R (Homo sapiens, UniProt P01116, G12R); assay: KRas binding assay (TR-FRET tracer displacement), KRas G12R
T1 construct: Biotinylated KRas (corresponding to amino acids 1-169, produced at Accelegan Inc.); biotin (biotinylated); purchased Accelegan Inc

KRas^G12V = target: T2, KRas^G12V (Homo sapiens, UniProt P01116, G12V); assay: KRas binding assay (TR-FRET tracer displacement), KRas G12V
T2 construct: Biotinylated KRas (corresponding to amino acids 1-169, produced at Accelegan Inc.); biotin (biotinylated); purchased Accelegan Inc
T2 sequence (P01116 1-169 isoform P01116-2 G12V): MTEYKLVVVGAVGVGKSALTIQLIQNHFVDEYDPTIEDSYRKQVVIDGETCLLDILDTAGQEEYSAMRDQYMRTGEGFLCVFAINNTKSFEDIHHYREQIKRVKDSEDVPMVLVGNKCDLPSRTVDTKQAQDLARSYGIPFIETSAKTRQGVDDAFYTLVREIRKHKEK

[1] = system: KRas-mediated phosphorylation of ERK in AsPC-1 cells; assay: Inhibition of KRas-mediated phosphorylation of ERK (Cisbio HTRF pERK), AsPC-1 cells; assay type: cell-based; conditions: Homo sapiens; for IC50: ASPC1, AsPC-1 cells, HTRF pERK
In short: (§1)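 H358, H727, H460 and AsPC-1 cells seeded at 6,000/well, treated 3 hrs with 10-dose 3-fold dilutions from 10 uM (0.8% DMSO); 0.2 uM trametinib as min control. Lysed 40 min at 4° C; lysate incubated 2 hrs at room temperature with d2/cryptate antibodies, HTRF read.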

[2] = system: KRas-mediated phosphorylation of ERK in H727 cells; assay: Inhibition of KRas-mediated phosphorylation of ERK (Cisbio HTRF pERK), H727 cells; assay type: cell-based; conditions: Homo sapiens; for IC50: NCI-H727, H727 cells, HTRF pERK
In short: as §1

KRas^G12D = target: T3, KRas^G12D (Homo sapiens, UniProt P01116, G12D); assay: KRas binding assay (TR-FRET tracer displacement), KRas G12D
T3 construct: Biotinylated KRas (corresponding to amino acids 1-169, produced at Accelegan Inc.); biotin (biotinylated); purchased Accelegan Inc
T3 sequence (P01116 1-169 isoform P01116-2 G12D): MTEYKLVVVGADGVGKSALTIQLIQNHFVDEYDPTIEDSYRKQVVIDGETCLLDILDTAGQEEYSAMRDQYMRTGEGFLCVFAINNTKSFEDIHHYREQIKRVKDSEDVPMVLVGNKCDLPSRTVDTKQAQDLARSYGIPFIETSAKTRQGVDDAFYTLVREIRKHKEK

T1 sequence (P01116 1-169 isoform P01116-2 G12R): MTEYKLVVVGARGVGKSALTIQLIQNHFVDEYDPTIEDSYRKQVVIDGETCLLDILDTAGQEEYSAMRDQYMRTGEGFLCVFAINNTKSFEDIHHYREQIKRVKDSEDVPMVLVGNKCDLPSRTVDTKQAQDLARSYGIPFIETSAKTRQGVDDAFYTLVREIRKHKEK

| IC50 (KRas^G12R) | IC50 (KRas^G12V) | IC50 [1] | IC50 [2] | IC50 (KRas^G12D) | Structure (SMILES) | inhibition at 0.1 µM ([1]; ASPC1, 3 h, single point, 100 nM compound, 3 hrs, AsPC-1 cells) | inhibition at 0.1 µM ([2]; NCI-H727, 3 h, single point, 100 nM compound, 3 hrs, H727 cells) |
| --- | --- | --- | --- | --- | --- | --- | --- |
| 2 nM | 2 nM | 1040 nM | 718 nM | 13 nM | CCc1c(F)ccc2cc(O)cc(-c3ncc4c(NCc5cn(C(=O)N(C)C)nc5N)nc(OC[C@@]56CCCN5C[C@H](F)C6)nc4c3F)c12 [Example 639, 3-amino-4-(((7-(8-ethyl-7-fluoro-3-hydroxynaphthalen-1-yl)-8-fluoro-2-(((2R,7aS)-2-fluorohexahydro-1H-pyrrolizin-7a-yl)methoxy)pyrido[4,3-d]pyrimidin-4-yl)amino)methyl)-N,N-dimethyl-1H-pyrazole-1-carboxamide] | – | – |
| 540 nM | 632 nM | > 10000 nM | > 10000 nM | 3120 nM | CCc1c(F)ccc2cc(O)cc(-c3ncc4c(N5C[C@@H]6[C@@H](CC(N)=O)NC(=O)[C@@H]6C5)nc(OC[C@@]56CCCN5C[C@H](F)C6)nc4c3F)c12 [Example 641, 2-((1R,3aS,6aR)-5-(7-(8-ethyl-7-fluoro-3-hydroxynaphthalen-1-yl)-8-fluoro-2-(((2R,7aS)-2-fluorotetrahydro-1H-pyrrolizin-7a(5H)-yl)methoxy)pyrido[4,3-d]pyrimidin-4-yl)-3-oxooctahydropyrrolo[3,4-c]pyrrol-1-yl)acetamide] | – | – |
| 582 nM | 581 nM | 9340 nM | > 10000 nM | 1990 nM | CCc1c(F)ccc2cc(O)cc(-c3ncc4c(N5C[C@@H]6[C@@H](C(F)(F)F)C[C@]6(CO)C5)nc(OC[C@@]56CCCN5C[C@H](F)C6)nc4c3F)c12 [Example 647, 5-ethyl-6-fluoro-4-(8-fluoro-2-(((2R,7aS)-2-fluorohexahydro-1H-pyrrolizin-7a-yl)methoxy)-4-((1R,5R,6S)-1-(hydroxymethyl)-6-(trifluoromethyl)-3-azabicyclo[3.2.0]heptan-3-yl)pyrido[4,3-d]pyrimidin-7-yl)naphthalen-2-ol] | – | – |
| 51 nM | 40 nM | 2280 nM | 1390 nM | 125 nM | CCc1c(F)ccc2cc(O)cc(-c3ncc4c(N5CCCC(S(=O)(=O)C(F)F)C5)nc(OC[C@@]56CCCN5C[C@H](F)C6)nc4c3F)c12 (stereo partly drawn) [Example 652, 4-(4-(3-((difluoromethyl)sulfonyl)piperidin-1-yl)-8-fluoro-2-(((2R,7aS)-2-fluorotetrahydro-1H-pyrrolizin-7a(5H)-yl)methoxy)pyrido[4,3-d]pyrimidin-7-yl)-5-ethyl-6-fluoronaphthalen-2-ol] | – | – |
| 16 nM | 20 nM | > 10000 nM | > 10000 nM | 123 nM | CCc1c(F)ccc2cc(O)cc(-c3ncc4c(SCc5cc(C(=O)N(C)C)nn5C)nc(OC[C@@]56CCCN5C[C@H](F)C6)nc4c3F)c12 [Example 653, 5-(((7-(8-ethyl-7-fluoro-3-hydroxynaphthalen-1-yl)-8-fluoro-2-(((2R,7aS)-2-fluorohexahydro-1H-pyrrolizin-7a-yl)methoxy)pyrido[4,3-d]pyrimidin-4-yl)thio)methyl)-N,N,1-trimethyl-1H-pyrazole-3-carboxamide] | – | – |
| 18 nM | 25 nM | 1410 nM | 1790 nM | 19 nM | CCc1c(F)ccc2cc(O)cc(-c3ncc4c(N5CCCC6(C5)CN(S(C)(=O)=O)C6)nc(OC[C@@]56CCCN5C[C@H](F)C6)nc4c3F)c12 [Example 654, 5-ethyl-6-fluoro-4-(8-fluoro-2-(((2R,7aS)-2-fluorohexahydro-1H-pyrrolizin-7a-yl)methoxy)-4-(2-(methylsulfonyl)-2,6-diazaspiro[3.5]nonan-6-yl)pyrido[4,3-d]pyrimidin-7-yl)naphthalen-2-ol] | – | – |
| 633 nM | 291 nM | > 10000 nM | > 10000 nM | 2880 nM | CCc1c(F)ccc2cc(O)cc(-c3ncc4c(N5CCC(N6CCCCS6(=O)=O)C5)nc(OC[C@@]56CCCN5C[C@H](F)C6)nc4c3F)c12 (stereo partly drawn) [Example 655, 2-(1-(7-(8-ethyl-7-fluoro-3-hydroxynaphthalen-1-yl)-8-fluoro-2-(((2R,7aS)-2-fluorotetrahydro-1H-pyrrolizin-7a(5H)-yl)methoxy)pyrido[4,3-d]pyrimidin-4-yl)pyrrolidin-3-yl)-1,2-thiazinane 1,1-dioxide] | – | – |
| 1610 nM | 582 nM | > 10000 nM | > 10000 nM | 462 nM | CCc1c(F)ccc2cc(O)cc(-c3ncc4c(N5CCC(N6C(=O)OC7CNCC76)CC5)nc(OC[C@@]56CCCN5C[C@H](F)C6)nc4c3F)c12 (stereo partly drawn) [Example 659, 3-(1-(7-(8-ethyl-7-fluoro-3-hydroxynaphthalen-1-yl)-8-fluoro-2-(((2R,7aS)-2-fluorotetrahydro-1H-pyrrolizin-7a(5H)-yl)methoxy)pyrido[4,3-d]pyrimidin-4-yl)piperidin-4-yl)hexahydro-2H-pyrrolo[3,4-d]oxazol-2-one] | – | – |
| 699 nM | 1740 nM | > 10000 nM | > 10000 nM | 680 nM | CCc1c(F)ccc2cc(O)cc(-c3ncc4c(N5CCCn6nc(S(N)(=O)=O)cc6C5)nc(OC[C@@]56CCCN5C[C@H](F)C6)nc4c3F)c12 [Example 661, 5-(7-(8-ethyl-7-fluoro-3-hydroxynaphthalen-1-yl)-8-fluoro-2-(((2R,7aS)-2-fluorohexahydro-1H-pyrrolizin-7a-yl)methoxy)pyrido[4,3-d]pyrimidin-4-yl)-5,6,7,8-tetrahydro-4H-pyrazolo[1,5-a][1,4]diazepine-2-sulfonamide] | – | – |
| 1250 nM | 966 nM | 1240 nM | 3120 nM | 1980 nM | CCc1c(F)ccc2cc(O)cc(-c3ncc4c(N5C[C@@H]6[C@@H](CS(N)(=O)=O)NC(=O)[C@@H]6C5)nc(OC[C@@]56CCCN5C[C@H](F)C6)nc4c3F)c12 [Example 665, 1-((1S,3aS,6aR)-5-(7-(8-ethyl-7-fluoro-3-hydroxynaphthalen-1-yl)-8-fluoro-2-(((2R,7aS)-2-fluorotetrahydro-1H-pyrrolizin-7a(5H)-yl)methoxy)pyrido[4,3-d]pyrimidin-4-yl)-3-oxooctahydropyrrolo[3,4-c]pyrrol-1-yl)methanesulfonamide] | – | – |
| 323 nM | 203 nM | 6150 nM | 6050 nM | 445 nM | CCc1c(F)ccc2cc(O)cc(-c3ncc4c(N5CCOCC6(CCS(=O)(=O)CC6)C5)nc(OC[C@@]56CCCN5C[C@H](F)C6)nc4c3F)c12 [Example 667, 11-(7-(8-ethyl-7-fluoro-3-hydroxynaphthalen-1-yl)-8-fluoro-2-(((2R,7aS)-2-fluorohexahydro-1H-pyrrolizin-7a-yl)methoxy)pyrido[4,3-d]pyrimidin-4-yl)-8-oxa-3-thia-11-azaspiro[5.6]dodecane 3,3-dioxide] | – | – |
| 16 nM | 12 nM | > 10000 nM | > 10000 nM | 34 nM | CCc1c(F)ccc2cc(O)cc(-c3ncc4c(NCc5cc(C(=O)N(C)C)n(CCC#N)n5)nc(OC[C@@]56CCCN5C[C@H](F)C6)nc4c3F)c12 [Example 668, 1-(2-cyanoethyl)-3-(((7-(8-ethyl-7-fluoro-3-hydroxynaphthalen-1-yl)-8-fluoro-2-(((2R,7aS)-2-fluorohexahydro-1H-pyrrolizin-7a-yl)methoxy)pyrido[4,3-d]pyrimidin-4-yl)amino)methyl)-N,N-dimethyl-1H-pyrazole-5-carboxamide] | – | – |
| < 2 nM | 3 nM | 9490 nM | 2040 nM | 32 nM | CCc1c(F)ccc2cc(O)cc(-c3ncc4c(NCc5cn(C(=O)N(C)C)nc5NC(C)=O)nc(OC[C@@]56CCCN5C[C@H](F)C6)nc4c3F)c12 [Example 675, 3-acetamido-4-(((7-(8-ethyl-7-fluoro-3-hydroxynaphthalen-1-yl)-8-fluoro-2-(((2R,7aS)-2-fluorohexahydro-1H-pyrrolizin-7a-yl)methoxy)pyrido[4,3-d]pyrimidin-4-yl)amino)methyl)-N,N-dimethyl-1H-pyrazole-1-carboxamide] | – | – |
| < 2 nM | < 2 nM | – | 4580 nM | 13 nM | CCc1c(F)ccc2cc(O)cc(-c3ncc4c(NCc5cc(C(=O)N(C)C)nn5C5CCC5O)nc(OC[C@@]56CCCN5C[C@H](F)C6)nc4c3F)c12 (stereo partly drawn) [Example 677, 5-(((7-(8-ethyl-7-fluoro-3-hydroxynaphthalen-1-yl)-8-fluoro-2-(((2R,7aS)-2-fluorotetrahydro-1H-pyrrolizin-7a(5H)-yl)methoxy)pyrido[4,3-d]pyrimidin-4-yl)amino)methyl)-1-(2-hydroxycyclobutyl)-N,N-dimethyl-1H-pyrazole-3-carboxamide] | -8% | 2% |

| Structure (SMILES) | IC50 (KRas^G12R) | IC50 (KRas^G12V) | IC50 [1] | IC50 [2] | IC50 (KRas^G12D) | inhibition at 0.1 µM ([1]; ASPC1, 3 h, single point, 100 nM compound, 3 hrs, AsPC-1 cells) | inhibition at 0.1 µM ([2]; NCI-H727, 3 h, single point, 100 nM compound, 3 hrs, H727 cells) |
| --- | --- | --- | --- | --- | --- | --- | --- |
| CCc1c(F)ccc2cc(O)cc(-c3ncc4c(N5CC6(CO)CC(C7CCCC7)(C5)C6)nc(OC[C@@]56CCCN5C[C@H](F)C6)nc4c3F)c12 [Example 648, 4-(4-(1-cyclopentyl-5-(hydroxymethyl)-3-azabicyclo[3.1.1]heptan-3-yl)-8-fluoro-2-(((2R,7aS)-2-fluorohexahydro-1H-pyrrolizin-7a-yl)methoxy)pyrido[4,3-d]pyrimidin-7-yl)-5-ethyl-6-fluoronaphthalen-2-ol] | 7370 nM | 6080 nM | > 10000 nM | > 10000 nM | 9120 nM | – | – |
